Assay results: patent US12630536B2, “Cyanotriazine derivative, preparation method therefor, and application thereof” (Chengdu Fanxi Biopharma Co., LTD., priority 2020, dated 2026)

Tests used:
[1] = target: T1, THR-α ligand-binding domain (H6-THR-α) (Homo sapiens, UniProt P10827); test: Co-activated peptide recruitment test of THR-α/RXR/GRIP1 (TR_LBD agonist detection, HTRF); type: biochemical
T1 construct: made in house; host or cells: Escherichia coli BL21 (DE3), vector pET28a
T1 sequence (P10827 148-410 isoform P10827-2 limits assumed): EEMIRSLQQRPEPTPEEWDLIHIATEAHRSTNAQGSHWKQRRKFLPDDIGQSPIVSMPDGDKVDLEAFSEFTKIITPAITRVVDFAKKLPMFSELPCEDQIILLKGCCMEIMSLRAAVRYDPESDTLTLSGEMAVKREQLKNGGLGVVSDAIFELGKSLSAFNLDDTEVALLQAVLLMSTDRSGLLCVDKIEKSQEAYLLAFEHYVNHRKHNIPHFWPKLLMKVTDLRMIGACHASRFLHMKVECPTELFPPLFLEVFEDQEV
T1 sequence (P19793 225-462 partner limits assumed): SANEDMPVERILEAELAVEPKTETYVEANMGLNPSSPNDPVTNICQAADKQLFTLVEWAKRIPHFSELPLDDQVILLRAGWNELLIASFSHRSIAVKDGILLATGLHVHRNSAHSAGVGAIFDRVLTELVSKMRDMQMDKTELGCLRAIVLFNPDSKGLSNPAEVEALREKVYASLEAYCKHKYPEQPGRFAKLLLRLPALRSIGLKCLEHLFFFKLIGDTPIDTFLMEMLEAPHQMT
T1 sequence (Q15596 679-703 partner limits assumed): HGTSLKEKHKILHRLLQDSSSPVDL
Protocol: A ligand binding domain of THR-β (amino acids 148-410) (H6-THR-β) and a ligand binding domain of THR-α (amino acids 202-461) (H6-TRα) were cloned into E. coli expression vector pET28a (Novagen, Milwaukee, Wis.) containing N-terminal six His sequences. The resulting recombinant six-His-tagged protein was produced in E. coli BL21(DE3) cells. The cells were grown in Terrific Broth (self-used self-prepared Bacto tryptone (3.3%, w/v), Difico yeast extract (2.0%, w/v) and NaCl (0.5%, w/v) medium), incubated at 25° C. for 24 hours using a shake flask in 0.2 mM IPTG, harvested or dissolved with 5 volumes of buffer A (0.05 M Tris, 0.3 M NaCl, 1% W/V betaine, 0.01 M imidazole, 0.02 M b-mercaptoethanol, pH 8.0). Lysozyme (1.0 mg/ml, Sigma) and CompleteProtease Inhibitor Cocktail (Roche Diagnostics Gmbh) were added to the slurry and the solution was sonicated for one minute and 5 times at 4° C. The suspension was centrifuged at 127,300 RCF for 2 hours in a Ti45 Beckmann rotor and the supernatant was loaded onto an NI NTAAgarose (Quigen 30210) column. After washing with the buffer A, […] or H6-THR-α was eluted with the buffer A containing 0.25 M imidazole.
30 microliters of H6-THR-β (50 nM) or H6-THR-α in 50 mM Hepes, pH 7.0, 1 mM DTT, 0.05% NP40 and 0.2 mg/ml BSA (binding buffer) were mixed with an equal volume of EE-RxRα (50 nM) in the binding buffer. […] Aliquot ([…]) was transferred to a 384-well black microtiter plate. HTRF signal was read on a Victor5 reader (PerkinElmer Life and Analytical Sciences). EC50 was calculated.
Gene clones expressing a ligand-binding domain (amino acids 148-410) of THR-β (H6-THR-β) and a ligand-binding domain (amino acids 202-461) of THR-α (H6-THR-α) were inserted into an Escherichia coli expression vector pET28a, and the expression vector contained one N-terminal 6-His sequence. The expression vector was introduced into an Escherichia coli BL21 (DE3) strain to produce a recombinant protein with a His tag. […] After finishing culturing, a bacterium in culture was collected, and the collected bacterium was resuspended with a lysis solution (0.05 M Tris, 0.3 M NaCl, 1% W/V betaine, 0.01 M imidazole, 0.02 M β-mercaptoethanol, and pH 8.0) with a volume 5 times that of the bacterium, and lysozyme and protease inhibitors were added at the same time, the treated bacteria was subjected to ultrasonic lysis (5 times per minute) in ice bath (4° C.). A lysed suspension was centrifuged at 127300 RCF for 2 hours, a supernatant was loaded on a NI_NTA agarose (Quigen 30210) column, and after washing with a buffer A, an H6-TRβ or H6-TRα protein was eluted with the buffer A containing 0.25 M imidazole.
A human retinol X receptor (amino acid 225-462) (RxRα) was subjected to engineering modification, so that an N-terminal of the human retinol X receptor had His6 and EE(EFMPME) tags, and then the human retinol X receptor was cloned into a pACYC vector, and produced a His6 EEtagged protein in Escherichia coli. IPTG with a final concentration of 0.1 mM was added into the culture medium for induction, and cultured in a shaking flask at 18° C. for 18 hours. After finishing culturing, a bacterium in culture was collected, and the collected bacterium was re-suspended with a lysis solution (0.05 M Tris, 0.3 M NaCl, 1% W/V betaine, 0.01 M imidazole, 0.02 β-mercaptoethanol, and pH 8.0) with a volume 5 times that of the bacterium, lysozyme and protease inhibitors were added at the same time, and stirred at 4° C. for 30 minutes. Then, a suspension was subjected to an ultrasonic treatment at 4° C. for 30 seconds for 5 times. The suspension was collected, and centrifuged at 12000 RCF for 20 minutes. A supernatant was collected, and the supernatant was filtered with a membrane with a pore size of 0.45 μm, and then added with 0.5% NP-40.

[2] = test system: TR alpha-UAS-bla HEK 293T Cells; test: TR cell-based agonist detection, β-lactamase reporter (LiveBLAzer FRET B/G), TR alpha
Protocol: A method for testing a THR-α/β activation activity of a compound by an in-vitro cell level was as follows.
Compounds were transferred to a 384-well plate by an ECHO liquid workstation, and each compound was diluted by 3 times with 10 gradient concentrations, which was in triplicate. 1.5×10^4 DMEM-cultured cells (TR beta-UAS-bla HEK 293T Cells) or 1.0×10^4 TR alpha-UAS-bla HEK 293T Cells were placed in the 384-well plate. HEK 293T-TR beta was incubated in an incubator for 16 hours, and HEK 293T-TR alpha was incubated in an incubator for 24 hours. A LiveBLAzer™-FRET B/G (CCF4-AM) substrate was added into the cell plate to detect expression of β-lactamase in cells, and under excitation of 409 nm, a product produced fluorescence with a wavelength of 447 nm. When the β-lactamase was not expressed, under excitation of 409 nm, fluorescence with a wavelength of 520 nm was directly produced through FRET. Combination between the compound and the protein was determined by detecting a ratio of the two kinds of fluorescence (blue/green, 460 nm/530 nm), thus calculating EC50 of the compound. […] Calculation of a factor Z (greater than 0.5) would be used for monitoring a stability of each experiment.

EC50 ([1]; Detection of TR_LBD agonist, read-out: TR_α_EC50): 35.3 nM
Maximum activity ratio (A520/A495) ([1]; TR_LBD agonist, TR_α): 3.83
Measurement of cpd/T3 (maximum ratio) ([1]; TR_LBD agonist, TR_α, maximum relative to T3): 71.1%
SMILES: Cn1cnc2ccc(Oc3c(Br)cc(-n4nc(C#N)c(=O)[nH]c4=O)cc3Br)cc21 [Compound 1, 2-(3,5-dibromo-4-((1-methyl-1H-benzo[d]imidazol-6-yl)oxy)phenyl)-3,5-dioxo-2,3,4,5-tetra hydro-1,2,4-triazine-6-carbonitrile]
Emax ([2]; Homo sapiens, HEK-293T, 24 h, TR_cell-based agonist, TR_α, read-out: Maximum activity ratio): 205%
EC50 ([2]; Homo sapiens, Detection of TR_cell-based agonist, HEK 293T-TR alpha, 24 hours, read-out: TR_α_EC50): 4320 nM
Test cpd/T3 (maximum ratio) ([2]; TR_cell-based agonist, TR_α, maximum relative to T3): 93.2%
